Assay results as given in PubChem BioAssay (NCI).
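Tested at 5 concentrations; 48 h exposure; 96-well plates; endpoints linearly interpolated, else capped at highest concentration. Here, GI50 denotes the concentration required for 50% inhibition of growth. TGI: total growth inhibition.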

Experiments:
Experiment in all cases: DTP human tumour cell line panel, 48 h
A498 renal = test system: A498 renal
MCF7 breast = test system: MCF7 breast
PC-3 prostate = test system: PC-3 prostate
RPMI-8226 leukemia = test system: RPMI-8226 leukemia
SF-295 CNS = test system: SF-295 CNS
SK-MEL-28 melanoma = test system: SK-MEL-28 melanoma
SR leukemia = test system: SR leukemia
T-47D breast = test system: T-47D breast

Compound	GI50 (A498 renal) [µM]	TGI (A498 renal) [µM]	GI50 (MCF7 breast) [µM]	TGI (MCF7 breast) [µM]	GI50 (PC-3 prostate) [µM]	TGI (PC-3 prostate) [µM]	GI50 (RPMI-8226 leukemia) [µM]	TGI (RPMI-8226 leukemia) [µM]	GI50 (SF-295 CNS) [µM]	TGI (SF-295 CNS) [µM]	GI50 (SK-MEL-28 melanoma) [µM]	TGI (SK-MEL-28 melanoma) [µM]	GI50 (SR leukemia) [µM]	TGI (SR leukemia) [µM]	GI50 (T-47D breast) [µM]	TGI (T-47D breast) [µM]
CN1CCN(Cc2ccc(NC(=O)c3[nH]ncc3Nc3ncnc4[nH]ccc34)cc2)CC1	0.149	0.406	0.118	29.1	0.372	> 100	2.43	6.59	0.211	5.01	0.411	4.24	0.229	0.708	0.365	18.7
Cc1nc(NS(=O)(=O)c2ccc(NCN3C(=O)c4ccccc4C3=O)cc2)oc1C	> 100	> 100	> 100	> 100	> 100	> 100	> 100	> 100	> 100	> 100	> 100	> 100	> 100	> 100		
O=C1OCC2=C1C(c1cccc(C(F)(F)F)c1)c1cc3c(cc1N2CCO)OCCO3 (centres undefined)	0.866	3.25	1.09	> 33.3	1.24	> 33.3	1.39	> 33.3	0.895	> 33.3	1.71	> 33.3	1.04	> 33.3		
N#CC1=C(N)NC(N2CCOCC2)=NC12Nc1ccccc1O2 (centres undefined)			23.3	64.2	31.8	> 100	15.4	61.3	38.5	> 100	> 100	> 100	27.7	> 100	80.3	> 100
COc1cc(C2c3cc4c(cc3OC(O)C2C)OCO4)cc(OC)c1OC (centres undefined)		50.2		> 55.9		> 100		2.07		> 48.8		> 100				
COc1ccc(C2NN=C3c4ccccc4CCC32)cc1 (centres undefined)	19.4	65	2.56	11.5	15.8	> 100	5.36	85.4	2.48	13.2	8.26	76.1			6.12	47.3
CCCCCCCCCCCNC=O		86.7		> 100		66.9		78.7		> 100		> 100				> 100
COC1=C(OC)C(=O)C(C/C=C(\C)CC/C=C(\C)CC/C=C(\C)CC/C=C(\C)CC/C=C(\C)CC/C=C(\C)CC/C=C(\C)CC/C=C(\C)CC/C=C(\C)CCC=C(C)C)=C(C)C1=O			> 100	> 100	> 100	> 100	> 100	> 100	> 100	> 100	> 100	> 100	> 100	> 100	> 100	> 100
CC12OC(C(=O)C13CC3)C1C(=O)c3c(O)ccc(O)c3C(=O)C12 (centres undefined)			11.2	26.3	16.5	37.1					24.6	78.7			11.6	32
COc1cc(OC)c2c(=O)cc(-c3ccccc3OCc3ccccc3)oc2c1OC	9.62	69.9			3.34	32.5	2.83	> 100	4.65	26.8	12.7	46.5			18.7	> 100
CC(C)=Cc1cc(C)c2ccc(C)c3c2c1C(C)=C(O)C3=O			53.5	> 100	12.6	37.8	4.38	24.7	31.4	94.9	0.933	> 100	1.46	4.17	16.9	52.8
CC(C)=Cc1cc(CCC/C(C)=C/Cc2c(O)cc(C)c(C(=O)O)c2O)co1				> 100		> 100		> 100		> 100		> 100				> 100
O=C1CC(c2cccc(Cl)c2)Oc2ccccc21 (centres undefined)		46.3		39.4		30.4		9.83		53.6		42.2				91.7
CCOC(=O)c1c(-c2ccccc2)[n+](=O)c2cc(F)c(F)cc2n1[O-]	5.02	17	2.76	10.5	1.65	3.16	1.02	3.98	2.08	3.84	1.73	3.34	0.187	> 100		
CC1CCCC(C#N)(NOC2=NCCN2)C1 (centres undefined)			42.2	> 100	> 100	> 100	38	> 100	31	> 100	> 100	> 100	7.87	> 100		
C=CC1C(CC2OC(CO)C(O)C(O)C2O)OC=C2C(=O)OCCC21O (centres undefined)			21.6	> 100	11	27.9	2.32	8.43	23.5	62.5	0.116	19.2	3.32	26.5	32	> 100
OCCCCC#Cc1ccccc1C#Cc1cccnc1	28.5	88.4	67.5	> 100	36.3	> 100	35.5	> 100	22.3	60.4	23.7	> 100			34.7	> 100
NC1=NC(SCc2ccccc2CCl)c2ncn(Cc3ccccc3CCl)c2N1 (centres undefined)	8.51	25.3	2.17	19.9	1.79	3.52			1.98	5	2.28	6.97	1.56	6.46	1.54	3.34
CC(C)C1(NC(=O)C2CC3c4cccc5[nH]cc(c45)CC3N(C)C2)OC2(O)C3CCCN3C(=O)C(Cc3ccccc3)N2C1=O (centres undefined)				> 100		> 100		39.8		> 100		> 100		41.2		> 100
COC(=O)c1onc(C2OC(C)(C)OC2C(O)COC(c2ccccc2)(c2ccccc2)c2ccccc2)c1C(=O)OC (centres undefined)		> 100		> 100		> 100		> 100				> 100		> 100		> 100
O=c1[nH]c2ccccc2c(O)c1/C=N/C(=S)NC1CCCCC1		> 100		> 100		> 100		> 100		> 100						> 100
CCCCCCCC(=O)[O-].CCCCCCCC(=O)[O-].N.N.N.N.[Co+3].[O-][Cl+3]([O-])([O-])[O-]							> 100	> 100	> 100	> 100	> 100	> 100	69.9	> 100		
N#C/C(=C/N1CCN(C(=O)c2ccco2)C1=S)C(=O)Nc1ccc(Cl)cc1			21	> 50	18.9	> 50	10.5	32.2	20.2	> 50	18.7	> 50	1.56	21.3	> 50	> 50
COc1ccc2c(c1O)[C@@]13CCCC=C1[C@@H](C2)[N+](C)(C)CC3				> 100		> 100				> 100		> 100				> 100
CC12CCC(=O)C(O1)C1C(=O)c3ccc4c(ccc5ccccc54)c3C(=O)C12 (centres undefined)	3.08	5.83	3.89	13.4	4.36	10.7	1.21	> 21.5	1.46	3	29.1	> 100			2.26	> 28.5
COc1cc2c(cc1OC)C(C(CBr)CBr)N(C1CCCC1)CC2 (centres undefined)		> 100						> 100		> 100		> 100		> 100		
C1CSC[C@H]2COC[C@@H](CSCCS1)S2				> 100		> 100				> 100		> 100		> 100		> 100
CC(C)(C)c1ccc(C2CC(=O)C3=C(C2)Nc2ccccc2N(C(=O)c2ccccc2Cl)C3c2ccc(F)cc2)cc1 (centres undefined)	1.3	> 100	> 100	> 100	7.01	> 100	4.14	> 100	> 100	> 100	> 100	> 100			5.57	> 100
CC(C)[P+](c1ccccc1)(c1ccccc1)c1ccccc1	9.22	74.9	3.69	> 100	2.42	34.6	1.72	23.6	7.41	36.6	21.2	> 100	3.05	> 100		
